{"source": "paper PMC7643960", "about": "(PLoS ONE, 2020)", "key": {"[1]": {"system": "human carbonic anhydrase isoenzyme IX", "set-up": "method as in PMID 15664816", "settings": "cited from earlier work"}, "[2]": {"system": "human carbonic anhydrase isoenzyme II", "set-up": "method as in PMID 15664816", "settings": "cited from earlier work"}, "EMM cells MelDuWi": {"system": "EMM cells MelDuWi", "settings": "read-out: 96-h IC50 value (sulforhodamine B assay); cited from earlier work"}, "[3]": {"system": "normal human umbilical vein endothelial cells, fibroblasts and keratinocytes", "settings": "cited from earlier work"}, "mice": {"system": "mice", "settings": "cited from earlier work"}, "[4]": {"assay": "Franz-type diffusion cell (FDC) permeation with HPLC analysis", "type": "in vitro ADME, horse", "settings": "any of the FDC experiments", "from_the_text": "Two different pharmaceutical formulations were provided by Skinomics GmbH, Halle, Germany, for in vitro permeation studies.\nSkin from six horses was used for each FDC experiment. The skin from the lateral thorax was dissected at the Institute of Pathology, University of Veterinary Medicine Hannover, Foundation, Hannover, Germany, after euthanasia of the horses at the Clinic for Horses, University of Veterinary Medicine Hannover, Foundation, for reasons unrelated to the present study. Therefore, a prospective approval of the experiments by an animal research ethics committee was not required. Skin samples were stored at -20°C until use (maximum five months). Further skin sample preparation and diffusion experiments were performed as reported. Skin samples were incubated with test formulation 1 for 24 h and with test formulation 2 for 30 min and 24 h, respectively.\nThe following slices were 20-μm thick. […] A higher permeation rate of the compound was expected for 24-h experiments and, therefore, the 20-μm slices were stored and analyzed separately up to a depth of 310 μm. The slices were then pooled at 5 × 20 μm until a depth of a maximal 910 μm was reached. The cryostat blade was cleaned with tissues soaked in 80% methanol between each cut. The quantity of NVX-207 was determined by an analytic high-performance liquid chromatography (HPLC) method. […]"}}}
{"compound": "C=C(C)[C@@H]1CC[C@]2(COS(N)(=O)=O)CC[C@]3(C)[C@H](CC[C@@H]4[C@@]5(C)CC[C@H](OS(N)(=O)=O)C(C)(C)[C@@H]5CC[C@]43C)[C@@H]12", "note": "[BBS, (3β)-Lup-20(29)-ene-3,28-diol, 3,28-disulfamate]", "values": [{"measurement": "inhibition of carbonic anhydrase IX", "setting": "[1]", "value": "efficient inhibitor"}, {"measurement": "inhibition of carbonic anhydrase II", "setting": "[2]", "value": "efficient inhibitor"}]}
{"compound": "C=C(C)[C@@H]1CC[C@]2(C(=O)OCC(N)(CO)CO)CC[C@]3(C)[C@H](CC[C@@H]4[C@@]5(C)CC[C@H](OC(C)=O)C(C)(C)[C@@H]5CC[C@]43C)[C@@H]12", "note": "[NVX-207, 3-acetyl-betulinic acid-2-amino-3-hydroxy-2-hydroxymethyl-propanoate]", "values": [{"measurement": "IC50", "setting": "EMM cells MelDuWi", "value": 5.6, "unit": "µM"}, {"measurement": "impact on in vitro survival of normal cells", "setting": "[3]", "value": "little impact"}, {"measurement": "side effects after intravenous application", "setting": "mice", "value": "did not lead to any side effects"}, {"measurement": "NVX-207 in the acceptor medium", "setting": "[4]", "value": "No NVX-207 was detected"}]}
